Reference: patent US4769447A, “Gamma-Glutamyl-4-azoanilides” (Boehringer Mannheim GmbH, priority 1986, dated 1988)
Counter-ions that a name gives are not always drawn.

Assays:
[1] = Absorption maxima (λmax., Δλmax.) and extinction coefficient of substrates and liberated coloured materials; format: physicochemical; conditions: for λmax. (coloured material): coloured material liberated from the substrate; for Δλmax. = λmax. (coloured material) - λmax. (substrate): difference of the absorption maxima
From the text: Thus, for example, the difference of the absorption maxima of the known substrate γ-glutamyl-3-carboxy-4-nitroanilide (λmax. 317 nm) and of the coloured material obtained therefrom, i.e. 3-carboxy-4-nitroaniline(λmax. 380 nm) is 63 nm. In contradistinction thereto, the compounds according to the present invention of general formula (I) display substantially greater differences between the absorption spectra of the substrate and of the coloured material liberated enzymatically therefrom. As a rule, this difference is from 80 to 110 nm.
Δλmax. hereby means the difference between λmax. (coloured material)-λmax. (substrate).

γ-GT [2] = experiment: Determination of the activity of γ-GT at 25° and 37° C. with S1 and L-Glupa C in human serum pools and control serum; format: biochemical; conditions: control serum PPU 516
γ-GT [3] = target: T1, γ-GT (Homo sapiens, UniProt P19440); experiment: as above; format: biochemical
T1 construct: in three mixtures of human sera; from tissue; host or cells: human serum (three pools of different activity); also a control serum of unstated origin
T1 sequence (P19440 1-380 limits assumed): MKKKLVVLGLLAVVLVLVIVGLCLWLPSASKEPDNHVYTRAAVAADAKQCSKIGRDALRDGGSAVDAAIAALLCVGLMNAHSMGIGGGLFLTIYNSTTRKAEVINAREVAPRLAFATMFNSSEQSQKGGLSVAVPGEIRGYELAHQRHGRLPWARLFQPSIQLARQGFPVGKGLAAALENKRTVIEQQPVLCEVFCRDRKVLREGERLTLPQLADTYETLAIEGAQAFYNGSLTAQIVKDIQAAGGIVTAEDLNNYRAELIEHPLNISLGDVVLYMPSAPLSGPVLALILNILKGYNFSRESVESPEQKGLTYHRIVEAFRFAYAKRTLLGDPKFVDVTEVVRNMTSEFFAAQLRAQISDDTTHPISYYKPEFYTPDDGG
T1 sequence (P19440 381-569 limits assumed): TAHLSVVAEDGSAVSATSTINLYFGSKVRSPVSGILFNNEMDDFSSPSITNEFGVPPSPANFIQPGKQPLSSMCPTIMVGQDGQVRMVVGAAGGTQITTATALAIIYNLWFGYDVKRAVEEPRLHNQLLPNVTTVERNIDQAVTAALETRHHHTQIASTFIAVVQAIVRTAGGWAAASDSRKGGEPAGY

γ-GT [4] = experiment: as above; format: biochemical; conditions: control serum PPU 516; 25° C.
Description: (§1) 21.78 g. Glycylglycine were dissolved in about 900 ml. distilled water, the pH was adjusted to 7.9 with 2N aqueous sodium hydroxide solution, the amount of substrate calculated for a concentration of 1 mmole/liter was dissolved therein and the solution made up to 1000 ml. with distilled water. End concentration in the test:
(§2) 2.0 ml. of the reagent described in (a) was pipetted into a cuvette, tempered to 25° C. and mixed with 0.2 ml. of sample. The extinction increase per minute was measured at an apropriate wavelength.
(§3) One international unit (U) is the enzyme activity which converts 1 μmole of substrate per minute at 25° C. The activity of the γ-glutamyl transferase in U/liter in the sample is calculated according to the following equation: [formula] wherein ΔE/min is the extinction increase at an appropriate wavelength per minute, V is the batch volume in ml., v is the sample volume in ml., ε is the extinction coefficient in cm^2 μmol^-1 and d is the layer thickness of the cuvette in cm.
(§4) The substrates used were L-Glupa C and S1.

γ-GT [5] = target: T1, γ-GT; experiment: as above; format: biochemical; conditions: 25° C.
Description: as §1, §2, §3, §4

[6] = target: T2, γ-glutamyl transferase (γ-GT) (Homo sapiens, UniProt P19440); experiment: Determination of the activity of γ-glutamyl transferase in a control serum at 25° C. with different substrates; format: biochemical; conditions: for extinction coefficient: at the measurement wavelength: 546 nm (S1, S8, S9), 578 nm (S5), 405 nm (L-Glupa C); for γ-GT activity found in control serum (U/liter at 25° C.): same control serum, substrate 1 mmole/liter, glycylglycine 150 mmole/liter, pH 7.9
T2 construct: host or cells: control serum
T2 sequence (P19440 381-569 limits assumed): as above
T2 sequence (P19440 1-380 limits assumed): as the sequence (P19440 1-380 limits assumed) above
Description: as §1, §2, §3

[7] = routine use; cited from earlier work

| Compound | λmax. (substrate) [1] [nm] | Δλmax. = λmax. (coloured material) - λmax. (substrate) [1] [nm] | extinction coefficient [6] [cm^2 μmol^-1] | γ-GT activity found in control serum (U/liter at 25° C.) [6] [U/liter] | further results |
| --- | --- | --- | --- | --- | --- |
| Nc1ccc([N+](=O)[O-])c(C(=O)O)c1 [3-carboxy-4-nitroaniline, reference compound] | – | – | – | – | λmax. (coloured material) [1]: 380 nm |
| N[C@@H](CCC(=O)Nc1ccc([N+](=O)[O-])c(C(=O)O)c1)C(=O)O [L-Glupa C, L-γ-glutamyl-3-carboxy-4-nitroanilide, reference compound] | 317 | 63 | 9.5 | 128 | γ-GT activity, control serum PPU 516 (γ-GT [2]): 211 U/l.; γ-GT activity, human serum pool 1 (γ-GT [3]): 57 U/l.; γ-GT activity, human serum pool 2 (γ-GT [3]): 106 U/l.; γ-GT activity, human serum pool 3 (γ-GT [3]): 323 U/l.; γ-GT activity, control serum PPU 516 (γ-GT [4]): 139 U/l.; γ-GT activity, human serum pool 1 (γ-GT [5]): 35 U/l.; γ-GT activity, human serum pool 2 (γ-GT [5]): 63 U/l.; γ-GT activity, human serum pool 3 (γ-GT [5]): 190 U/l. |
| N.N.N#Cc1cc([N+](=O)[O-])ccc1N=Nc1ccc(NC(=O)CCC(N)C(=O)O)cc1CCC(=O)O (centres unmarked) [S1, 2-Amino-5-[[4-(2-cyano-4-nitrophenyl)-azo-3-(2-carboxyethyl)-phenyl]-amino]-5-oxopentanoic acid diammonium salt] | 394 | 94 | 7.8 | 144 | γ-GT activity, control serum PPU 516 (γ-GT [2]): 268 U/l.; γ-GT activity, human serum pool 1 (γ-GT [3]): 96 U/l.; γ-GT activity, human serum pool 2 (γ-GT [3]): 176 U/l.; γ-GT activity, human serum pool 3 (γ-GT [3]): 490 U/l.; γ-GT activity, control serum PPU 516 (γ-GT [4]): 134 U/l.; γ-GT activity, human serum pool 1 (γ-GT [5]): 42 U/l.; γ-GT activity, human serum pool 2 (γ-GT [5]): 76 U/l.; γ-GT activity, human serum pool 3 (γ-GT [5]): 220 U/l. |
| NC(CCC(=O)Nc1ccc(N=Nc2ccc([N+](=O)[O-])cc2)c(C(=O)O)c1)C(=O)O (centres unmarked) [S3, 2-amino-5-[(3-carboxyl-4-(4-nitrophenyl)-azophenyl]-amino]-5-oxopentnoic acid diammonium salt] | 314 | – | – | – | – |
| N.N.NC(CCC(=O)Nc1ccc(N=Nc2cc(Cl)c([N+](=O)[O-])cc2Cl)c(OCC(=O)O)c1)C(=O)O (centres unmarked) [S4, 2-Amino-5-[[4-(2,5-dichloro-4-nitrophenyl)-azo-3-(carboxymethoxy)-phenyl]-amino]-5-oxopentanoic acid diammonium salt] | 402 | – | – | – | – |
| Cc1c(C#N)sc(N=Nc2ccc(NC(=O)CCC(N)C(=O)O)cc2CCC(=O)O)c1C#N.N.N (centres unmarked) [S5, 2-Amino-5-[[3-(2-carboxyethyl)-4-(2,4-dicyano-3-methyl-5-thienyl)-azophenyl]-amino]-5-oxopentanoic acid diammonium salt] | 424 | 106 | 8.9 | 77 | – |
| Cc1c(C#N)sc(N=Nc2ccc(NC(=O)CCC(N)C(=O)O)cc2OCC(=O)O)c1C#N.N.N (centres unmarked) [S6, 2-Amino-5-[[3-carboxymethoxy-4-(2,4-dicyano-3-methyl-5-thienyl)-azophenyl]-amino]-5-oxopentanoic acid diammonium salt] | 448 | – | – | – | – |
| Cc1cc(NC(=O)CCC(N)C(=O)O)ccc1N=Nc1nc(C)c(C(=O)O)s1 (centres unmarked) [S7, 2-Amino-5-[[4-(5-carboxy-4-methyl-2-thiazolyl)-3-methylazophenyl]-amino]-5-oxopentanoic acid diammonium salt] | 412 | – | – | – | – |
| Cc1nc(N=Nc2ccc(NC(=O)CCC(N)C(=O)O)cc2CCC(=O)O)sc1C#N.N.N (centres unmarked) [S8, 2-Amino-5-[[3-(2-carboxyethyl)-4-(5-cyano-4-methyl-2-thiazolyl)-azophenyl]-amino]-5-oxopentanoic acid diammonium salt] | 420 | 100 | 25.2 | 101 | – |
| N.N.NC(CCC(=O)Nc1ccc(N=Nc2nccs2)c(CCC(=O)O)c1)C(=O)O (centres unmarked) [S9, 2-Amino-5-[[3-(2-carboxyethyl)-4-(2-thiazolyl)azophenyl]amino]-5-oxopentanoic acid diammonium salt] | 394 | – | 2.8 | 160 | – |
| NC(CCC(=O)Nc1ccc([N+](=O)[O-])cc1)C(=O)O (centres unmarked) [γ-glutamyl-p-nitroanilide] | – | – | – | – | solubility (known substrate) [7]: poor solubility; stability (known substrate) [7]: instability |

The next lines start with results.

| λmax. (substrate) [1] [nm] | Compound | Δλmax. = λmax. (coloured material) - λmax. (substrate) [1] [nm] | extinction coefficient [6] [cm^2 μmol^-1] | γ-GT activity found in control serum (U/liter at 25° C.) [6] [U/liter] | further results |
| --- | --- | --- | --- | --- | --- |
| 414 | 2-Amino-5-[[4-(2-cyano-4-nitrophenyl)-azo-3-(2-carboxyethoxy)-phenyl]-amino]-5-oxopentanoic acid diammonium salt [S2] | – | – | – | – |
| 402 | C[n+]1ccsc1N=Nc1ccc(NC(=O)CCC(N)C(=O)[O-])cc1CCC(=O)O.N (centres unmarked) [S10, 2-Amino-5-[[3-(2-carboxylatoethyl)-4-(3-methylthiazolium-2-yl)-azophenyl]-amino]-5-oxopentanoic acid ammonium salt] | – | – | – | λmax. (coloured material) [1]: 486 nm; ε (coloured material) ([1]; printed after λmax. (coloured material)=486 nm): 15.5 cm^2 μmol^-1 |
| 453 | N.N.NC(CCC(=O)Nc1ccc(N=Nc2snc3cc([N+](=O)[O-])ccc23)c(OCC(=O)O)c1)C(=O)O (centres unmarked) [S11, 2-Amino-5-[[3-carboxymethoxy-4-(6-nitro-2,1-benzisothiazol-3-yl)-azophenyl]-amino]-5-oxopentanoic acid diammonium salt] | 107 | – | – | – |
| 424 | CCCCSc1nnc(N=Nc2ccc(NC(=O)CCC(N)C(=O)O)cc2OCC(=O)O)s1 (centres unmarked) [S12, 2-Amino-5-[[4-(2-butylthio-1,3,4-thiadiazol-5-yl)-3-carboxymethoxyazophenyl]-amino]-5-oxopentanoic acid diammonium salt] | – | – | – | – |
| 449 | CCOc1ccc2nc(N=Nc3ccc(NC(=O)CCC(N)C(=O)O)cc3OCC(=O)O)sc2c1.N.N (centres unmarked) [S13, 2-Amino-5-[[3-carboxymethoxy-4-(6-ethoxy-2-benzothiazolyl)-azophenyl]-amino]-5-oxopentanoic acid diammonium salt] | – | – | – | – |
